Assay results as given in publication PMC5688156, “The natural product carolacton inhibits folate-dependent C1 metabolism by targeting FolD/MTHFD” (Nature Communications, 2017).

Target: T1, hsMTHFD2 (Homo sapiens, UniProt P13995)
T1 construct: His-tag (vector pHis-TEV) (cleaved yes); made in house; host or cells: E. coli BL21 (DE3)
T1 sequence (P13995 36-350): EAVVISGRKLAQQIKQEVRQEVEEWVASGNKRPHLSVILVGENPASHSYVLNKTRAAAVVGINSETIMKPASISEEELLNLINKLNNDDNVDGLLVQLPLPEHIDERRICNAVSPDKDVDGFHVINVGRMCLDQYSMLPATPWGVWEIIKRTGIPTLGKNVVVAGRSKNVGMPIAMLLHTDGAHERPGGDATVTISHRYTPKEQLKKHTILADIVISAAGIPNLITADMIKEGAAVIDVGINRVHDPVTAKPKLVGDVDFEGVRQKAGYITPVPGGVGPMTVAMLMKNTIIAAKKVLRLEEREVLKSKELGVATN
Experiment: SPR binding to hsMTHFD2
Description: All surface plasmon resonance (SPR) experiments described in this study were performed on a Biacore X100 system. Different FolDs with or without His-tag were coupled on CM5 sensor chips (GE Healthcare) by the amine coupling method using a kit from GE Healthcare Life Sciences (Freiburg, Germany). A pH scouting process was performed before protein immobilization to test the most appropriate buffer and the protein concentration for protein coupling. Finally, 20 μg/mL of ecFolD in 10 mM maleate buffer (pH 6.8), 30 μg/mL of ecFolD Q98H in 10 mM maleate buffer (pH 6.3), 40 μg/mL of ecFolD K54N in 10 mM maleate buffer (pH 5.8), 20 μg/mL of spFolD in 10 mM maleate buffer (pH 6.0) and 15 μg/mL of MTHFD2 (His-tag cleaved) in 10 mM maleate buffer (pH 6.8) were used for coupling. In the protein immobilization procedure, the contact time was calculated based on the pH scouting results to achieve ~3000–5000 relative resonance units (RU). The buffer used in the SPR assays was 1× HBS-P buffer (10 mM HEPES pH 7.4, 150 mM NaCl, 0.05% Tween 20). The 1 mM stock solution of carolacton was prepared in 1× HBS-P buffer and diluted to different concentration ranges by two-fold serial dilution. In the SPR assay, the association time was 180 s and the dissociation time was 600 s. Data analysis was performed using the Biacore evaluation software. […]

CO[C@H](CC(=O)O)[C@@H](C)C(=O)[C@H](C)/C=C(\C)[C@H]1OC(=O)[C@H](O)[C@H](O)/C=C/[C@H](C)CCC[C@@H]1C [carolacton]
koff: 0.0222 s⁻¹
Kd (1:1 interaction model fit of association and dissociation signals): 19 nM
